Source: US20100056519A1, “COMPOSITION AND METHOD FOR REDUCING PLATELET ACTIVATION AND FOR THE TREATMENT OF THROMBOTIC EVENTS” (priority 2008, published 2010)

Experiments:
Type in all cases: cell-based, human
[1] = test system: Thrombospondin-Receptor (CD36); assay: Unstimulated whole blood flow cytometry, thrombospondin receptor; details: for Thrombospondin-Receptor (CD36), Mean Fluorescence Intensity: unstimulated, Mean ± SD
Protocol: (§1) The methodology employed was conventional aggregation induced by 5 μM ADP, 1 μg/ml collagen, 10 μM TRAP, whole blood aggregation with 1 μg/ml collagen, Ultegra, and PFA-100 Analyzers, expression of 14 intact, and TRAP-stimulated major receptors by whole blood flow cytometry were utilized to assess platelet activity after preincubation with escalating concentrations of E5555 (20 ng/ml, 50 ng/ml, and 100 ng/ml). The experiments were performed in healthy volunteers, CAD patients treated with ASA, and CAD patients treated with ASA and clopidogrel combination (n=10, for each group).
(§2) An Informed Consent was obtained from all volunteers. Drug users were excluded from data analysis. The study was approved by Quorum Institutional Review Board. All subjects underwent blood sampling after at least 30 minutes of rest and two or more hours of fasting. Blood (28 ml) was drawn between 8 and 10 a.m. in order to avoid any diurnal influence and sampled from an antecubital vein using a 21-gauge butterfly needle containing 3.2% sodium citrate (1:9 volume) after having discarded the first 1.5 ml of free running blood. Four Vacutainer tubes (7.0 ml) were collected for a total of 28 ml of whole blood-citrate mixture from each study participant. Chronologically, blood samples were delivered to the core laboratory facility within 45 minutes after drawing. Then all tubes of blood-citrate mixture were pooled. One portion of pooled blood (5 ml) was kept as an internal control and pretreated with the vehicle. The remaining blood (23 ml) was used for the in vitro exposure to E5555 at concentrations of 20 ng/ml, 50 ng/ml, and 100 ng/ml. […] The platelet aggregation studies, Rapid Analyzers measures, and flow cytometry preparations were initiated within no more than 110 minutes following the blood draw, incubation with the drug, and preparation of the samples.
(§3) Formation of platelet-leukocyte aggregates was assessed by dual labeling with pan-platelet marker (CD151), and then with CD14, the macrophage receptor for endotoxin lipopolysaccharides (PharMingen, and Coulter, San Diego, Calif., USA). The tubes were then covered with aluminum foil and incubated at 37° C. for 40 minutes with gentle rotation. After incubation, samples were immediately analyzed on a Becton Dickinson FACScan flow cytometer. The instrument was set up to measure forward light scatter, and FITC fluorescence. All parameters were collected using four-decade logarithmic amplification. The data was retrieved in list mode files and then analyzed. P selectin was expressed as percent positive cells. Other antigens were expressed as log mean fluorescence intensity.

[2] = test system: PECAM-1 (CD31); assay: TRAP-stimulated whole blood flow cytometry, PECAM-1; details: Mean ± SD
Protocol: as §1, §2, §3
(§4) For flow cytometry (TRAP-stimulated) all of the above flow cytometry experiments were identically repeated utilizing prestimulation with 10 μmol/L TRAP for 5 minutes at 37° C. To determine statistics, a Paired Sign Test was used to define significance of differences between vehicle and E5555-treated groups. The Mann-Whitney U test was used to analyze nonparametric data. Normally distributed data were expressed as mean±standard error (m±SE), and skewed data as median (range). All P-values were two sided. All analysis was performed using the SPSS v9.0 program (SPSS Inc., Chicago, Ill.).

[3] = test system: PAC-1 (GPIIb/IIIa); assay: Unstimulated whole blood flow cytometry, PAC-1; details: for PAC-1 (GPIIb/IIIa), Mean Fluorescence Intensity: unstimulated, Mean ± SD
Protocol: as §1, §2, §3

[4] = test system: PAC-1 (GPIIb/IIIa); assay: TRAP-stimulated whole blood flow cytometry, PAC-1; details: Mean ± SD
Protocol: as §1, §2, §3, §4

[5] = test system: platelets; assay: Conventional platelet aggregation in PRP induced by 5 μM ADP; details: for Platelet Aggregation (%), ADP 5 μM: Mean ± SD
Protocol: as §1, §2
Platelet counts were determined in each PRP sample with a Coulter Counter ZM (Coulter Co., Hialeah, Fla.). Platelet numbers were adjusted to 3.50×10^8/ml for aggregation using homologous platelet-poor plasma. Platelet aggregation was stimulated with 5 μM ADP, 1 μg/ml collagen, or 10 μM TRAP. All agonists were obtained from Chronolog Corporation (Havertown, Pa.) and Sigma (St. Louis, Miss.). Platelet aggregation experiments were performed using a Chrono-Log Lumi-Aggregometer (model 560-Ca). Aggregation curves were recorded for 4 minutes and analyzed according to internationally established standards using Aggrolink® software. Platelet aggregability was expressed as the percentage of light transmittance change from baseline using platelet-poor plasma as a reference.

[6] = test system: GP37 (CD165); assay: TRAP-stimulated whole blood flow cytometry, GP37; details: Mean ± SD
Protocol: as §1, §2, §3, §4

[7] = test system: PMA (CD14 + CD151); assay: TRAP-stimulated whole blood flow cytometry, platelet-monocyte aggregates; details: Mean ± SD
Protocol: as §1, §2, §3, §4

[8] = overall summary, stimulation not stated
[9] = E5555 20 ng/ml, Patients (ASA + C)
[10] = E5555 50 ng/ml, Patients (ASA + C)
[11] = E5555 100 ng/ml, Patients (ASA + C)
[12] = E5555 100 ng/ml, Patients (ASA)

## Br.CCOc1cc2c(c(F)c1OCC)C(=N)N(CC(=O)c1cc(N3CCOCC3)c(OC)c(C(C)(C)C)c1)C2 [E5555, 1-(3-tert-butyl-4-methoxy-5-morpholinophenyl)-2-(5,6-diethoxy-7-fluoro-1-imino-1,3-dihydro-2H-isoindol-2-yl)ethanone hydrobromide]
[1]; [8]
  thrombospondin receptor expression, effect in words: significant reduction
[1]; [9]
  Thrombospondin-Receptor (CD36), Mean Fluorescence Intensity: 6.8 ± 1.9 MFI
[1]; E5555 20 ng/ml, Patients (ASA)
  Thrombospondin-Receptor (CD36), Mean Fluorescence Intensity: 7.2 ± 0.5 MFI
[1]; E5555 20 ng/ml, Volunteers
  Thrombospondin-Receptor (CD36), Mean Fluorescence Intensity: 8.4 ± 1.1 MFI
[1]; [10]
  Thrombospondin-Receptor (CD36), Mean Fluorescence Intensity: 7.0 ± 1.0 MFI
[1]; E5555 50 ng/ml, Patients (ASA)
  Thrombospondin-Receptor (CD36), Mean Fluorescence Intensity: 7.0 ± 0.7 MFI
[1]; E5555 50 ng/ml, Volunteers
  Thrombospondin-Receptor (CD36), Mean Fluorescence Intensity: 8.2 ± 0.8 MFI
[1]; [11]
  Thrombospondin-Receptor (CD36), Mean Fluorescence Intensity: 7.1 ± 1.2 MFI
[1]; [12]
  Thrombospondin-Receptor (CD36), Mean Fluorescence Intensity: 7.4 ± 0.9 MFI
[1]; E5555 100 ng/ml, Volunteers
  Thrombospondin-Receptor (CD36), Mean Fluorescence Intensity: 8.4 ± 1.0 MFI
[2]; [9]
  PECAM-1 (CD31), Mean Fluorescence Intensity: 58 ± 9 MFI
[2]; E5555 20 ng/ml, Patients (ASA)
  PECAM-1 (CD31), Mean Fluorescence Intensity: 50 ± 6 MFI
[2]; E5555 20 ng/ml, Volunteers
  PECAM-1 (CD31), Mean Fluorescence Intensity: 60 ± 9 MFI
[2]; [10]
  PECAM-1 (CD31), Mean Fluorescence Intensity: 60 ± 7 MFI
[2]; E5555 50 ng/ml, Patients (ASA)
  PECAM-1 (CD31), Mean Fluorescence Intensity: 54 ± 9 MFI
[2]; E5555 50 ng/ml, Volunteers
  PECAM-1 (CD31), Mean Fluorescence Intensity: 55 ± 10 MFI
[2]; [11]
  PECAM-1 (CD31), Mean Fluorescence Intensity: 57 ± 11 MFI
[2]; [12]
  PECAM-1 (CD31), Mean Fluorescence Intensity: 52 ± 12 MFI
[2]; E5555 100 ng/ml, Volunteers
  PECAM-1 (CD31), Mean Fluorescence Intensity: 60 ± 7 MFI
[3]; [8]
  GP IIb/IIIa activity with PAC-1, effect in words: significant reduction
[3]; [9]
  PAC-1 (GPIIb/IIIa), Mean Fluorescence Intensity: 5.9 ± 0.8 MFI
[3]; E5555 20 ng/ml, Patients (ASA)
  PAC-1 (GPIIb/IIIa), Mean Fluorescence Intensity: 10.4 ± 1.2 MFI
[3]; E5555 20 ng/ml, Volunteers
  PAC-1 (GPIIb/IIIa), Mean Fluorescence Intensity: 10.7 ± 1.3 MFI
[3]; [10]
  PAC-1 (GPIIb/IIIa), Mean Fluorescence Intensity: 6.2 ± 1.0 MFI
[3]; E5555 50 ng/ml, Patients (ASA)
  PAC-1 (GPIIb/IIIa), Mean Fluorescence Intensity: 10.1 ± 2.0 MFI
[3]; E5555 50 ng/ml, Volunteers
  PAC-1 (GPIIb/IIIa), Mean Fluorescence Intensity: 9.2 ± 1.5 MFI
[3]; [11]
  PAC-1 (GPIIb/IIIa), Mean Fluorescence Intensity: 6.3 ± 0.7 MFI
[3]; [12]
  PAC-1 (GPIIb/IIIa), Mean Fluorescence Intensity: 11.7 ± 2.1 MFI
[3]; E5555 100 ng/ml, Volunteers
  PAC-1 (GPIIb/IIIa), Mean Fluorescence Intensity: 9.9 ± 2.0 MFI
[4]; [9]
  PAC-1 (GPIIb/IIIa), Mean Fluorescence Intensity: 41 ± 5 MFI
[4]; E5555 20 ng/ml, Patients (ASA)
  PAC-1 (GPIIb/IIIa), Mean Fluorescence Intensity: 52 ± 6 MFI
[4]; E5555 20 ng/ml, Volunteers
  PAC-1 (GPIIb/IIIa), Mean Fluorescence Intensity: 68 ± 8 MFI
[4]; [10]
  PAC-1 (GPIIb/IIIa), Mean Fluorescence Intensity: 9 ± 1 MFI
[4]; E5555 50 ng/ml, Patients (ASA)
  PAC-1 (GPIIb/IIIa), Mean Fluorescence Intensity: 9 ± 3 MFI
[4]; E5555 50 ng/ml, Volunteers
  PAC-1 (GPIIb/IIIa), Mean Fluorescence Intensity: 17 ± 9 MFI
[4]; [11]
  PAC-1 (GPIIb/IIIa), Mean Fluorescence Intensity: 5 ± 2 MFI
[4]; [12]
  PAC-1 (GPIIb/IIIa), Mean Fluorescence Intensity: 4 ± 1 MFI
[4]; E5555 100 ng/ml, Volunteers
  PAC-1 (GPIIb/IIIa), Mean Fluorescence Intensity: 7 ± 3 MFI
[5]; ASA-treated patients with coronary artery disease
  inhibition of platelet activity, aggregation induced by ADP: 10-12%
[5]; CAD patients treated with ASA+clopidogrel
  ADP-induced aggregation, effect in words: remains unchanged
[5]; E5555 20 ng/ml, CAD patients treated with ASA + clopidogrel
  Platelet Aggregation (%), ADP 5 μM: 40.8 ± 7.1%
[5]; E5555 20 ng/ml, CAD patients treated with ASA
  Platelet Aggregation (%), ADP 5 μM: 51.8 ± 4.7 %
[5]; E5555 20 ng/ml, healthy volunteers
  Platelet Aggregation (%), ADP 5 μM: 57.0 ± 9.2 %
[5]; E5555 50 ng/ml, CAD patients treated with ASA + clopidogrel
  Platelet Aggregation (%), ADP 5 μM: 42.6 ± 8.3%
[5]; E5555 50 ng/ml, CAD patients treated with ASA
  Platelet Aggregation (%), ADP 5 μM: 53.3 ± 5.9 %
[5]; E5555 50 ng/ml, healthy volunteers
  Platelet Aggregation (%), ADP 5 μM: 59.4 ± 7.9 %
[5]; E5555 100 ng/ml, CAD patients treated with ASA + clopidogrel
  Platelet Aggregation (%), ADP 5 μM: 39.3 ± 5.1%
[5]; E5555 100 ng/ml, CAD patients treated with ASA
  Platelet Aggregation (%), ADP 5 μM: 56.2 ± 5.3%
[5]; E5555 100 ng/ml, healthy volunteers
  Platelet Aggregation (%), ADP 5 μM: 60.8 ± 10.0 %
[5]; healthy volunteers, E5555 20, 50, and 100 ng/ml
  inhibition of conventional platelet aggregation induced by ADP: 15-20%
[5]; overall summary of the study
  inhibition of ADP-induced platelet aggregation in plasma: 10-15%
[6]; [9]
  GP37 (CD165), Mean Fluorescence Intensity: 27 ± 4 MFI
[6]; E5555 20 ng/ml, Patients (ASA)
  GP37 (CD165), Mean Fluorescence Intensity: 27 ± 5 MFI
[6]; E5555 20 ng/ml, Volunteers
  GP37 (CD165), Mean Fluorescence Intensity: 32 ± 6 MFI
[6]; [10]
  GP37 (CD165), Mean Fluorescence Intensity: 18 ± 4 MFI
[6]; E5555 50 ng/ml, Patients (ASA)
  GP37 (CD165), Mean Fluorescence Intensity: 20 ± 7 MFI
[6]; E5555 50 ng/ml, Volunteers
  GP37 (CD165), Mean Fluorescence Intensity: 28 ± 5 MFI
[6]; [11]
  GP37 (CD165), Mean Fluorescence Intensity: 21 ± 9 MFI
[6]; [12]
  GP37 (CD165), Mean Fluorescence Intensity: 22 ± 6 MFI
[6]; E5555 100 ng/ml, Volunteers
  GP37 (CD165), Mean Fluorescence Intensity: 29 ± 4 MFI
[7]; [9]
  PMA (CD14 + CD151), Mean Fluorescence Intensity: 100 ± 21 MFI
[7]; E5555 20 ng/ml, Patients (ASA)
  PMA (CD14 + CD151), Mean Fluorescence Intensity: 109 ± 23 MFI
[7]; E5555 20 ng/ml, Volunteers
  PMA (CD14 + CD151), Mean Fluorescence Intensity: 133 ± 19 MFI
[7]; [10]
  PMA (CD14 + CD151), Mean Fluorescence Intensity: 77 ± 23 MFI
[7]; E5555 50 ng/ml, Patients (ASA)
  PMA (CD14 + CD151), Mean Fluorescence Intensity: 82 ± 10 MFI
[7]; E5555 50 ng/ml, Volunteers
  PMA (CD14 + CD151), Mean Fluorescence Intensity: 118 ± 14 MFI
[7]; [11]
  PMA (CD14 + CD151), Mean Fluorescence Intensity: 108 ± 19 MFI
[7]; [12]
  PMA (CD14 + CD151), Mean Fluorescence Intensity: 116 ± 23 MFI
[7]; E5555 100 ng/ml, Volunteers
  PMA (CD14 + CD151), Mean Fluorescence Intensity: 125 ± 20 MFI
